Values after ≈ are worked out from the molar mass of the structure shown. Like-named read-outs stand apart in the source and are kept apart here.
Experiments:
[1] = system: AECO063 (ATCC25922 bearing an acrAB mutation); assay: microbe, parasite or virus in culture; type: cell-based, E. coli; conditions: Escherichia coli, ATCC25922, read-out: MIC AECO063
How it was run: (§1)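 MICs come from broth microdilution in cation-adjusted Mueller-Hinton broth, final inoculum 3×10^5–7×10^5 CFU/mL, 18-24 hours at 35° C. Levofloxacin and QC strains served as assay controls.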

AECO001 (ATCC25922) = assay: MIC broth microdilution, AECO001; type: cell-based, E. coli; conditions: for MIC: Escherichia coli
How it was run: as §1

[2] = system: APAE006 in the presence of 8 micrograms per milliliter of polymyxin B nonapeptide; type: cell-based, P. aeruginosa; conditions: APAE006 with 8 micrograms per milliliter polymyxin B nonapeptide
How it was run: (§2)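 Two-fold drug dilutions in cation-adjusted MHB were inoculated to 3×10^5–7×10^5 CFU/mL and held at 35° C. for 18-24 hours (ambient air), following CLSI. APAE006 is an efflux-deficient P. aeruginosa.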

[3] = system: APAE006 (strain of P. aeruginosa in which all efflux pumps are inactivated); assay: microbe, parasite or virus in culture; type: cell-based; conditions: Pseudomonas aeruginosa, read-out: MIC APAE006, APAE006, all efflux pumps inactivated
How it was run: as §2

[4] = system: ASAU001 (laboratory strain of S. aureus, ATCC29213); assay: MIC broth microdilution, ASAU001; type: cell-based; conditions: Staphylococcus aureus, ATCC29213, read-out: MIC ASAU001
How it was run: as §1

APAE001 (ATCC27853) = assay: MIC broth microdilution, APAE001; type: cell-based, P. aeruginosa; conditions: Pseudomonas aeruginosa, ATCC27853, read-out: MIC APAE001, APAE001 (ATCC27853)
How it was run: as §1

[5] = system: AABA1060 (clinical isolate of Acinetobacter baumannii); assay: MIC broth microdilution, AABA1060; type: cell-based; conditions: Acinetobacter baumannii, read-out: MIC AABA1060
How it was run: as §1

[6] = ATCC25922, read-out: MIC AECO001
[7] = ATCC25922, read-out: MIC AECO001 HSA AGP

| Structure (SMILES) | MIC [1] [µg/mL] | MIC (AECO001 (ATCC25922); [6]) [µg/mL] | MIC (AECO001 (ATCC25922); [7]) [µg/mL] | MIC APAE006 + PMBN [2] | MIC [3] [µg/mL] | MIC [4] [µg/mL] | MIC (APAE001 (ATCC27853)) [µg/mL] | MIC [5] [µg/mL] | Ratio of MICs on AECO001 [Cpd (A = —CHCH3NH2)/Cpd (A = —C(CH3)2NH2)] (AECO001 (ATCC25922); MIC of paired compound with A = —CHCH3NH2 divided by MIC of compound with A = —C(CH3)2NH2, n=2 data, pairs identical except for the A moiety) |
| --- | --- | --- | --- | --- | --- | --- | --- | --- | --- |
| CC(C)(N)[C@H](NC(=O)c1ccc(C#CC#Cc2ccc(O)cc2)cc1)C(=O)NO [Example 83-1, N—((S)-2-Amino-1-hydroxycarbamoyl-2-methyl-propyl)-4-[4-(4-hydroxy-phenyl)-buta-1,3-diynyl]-benzamide] | < 2 | < 2 | 2 to 16 (≈ 5.11 to 40.9 µM) | A (MIC's of 2.0 μg/mL or less = A) | < 2 | 16 to 64 (≈ 40.9 to 164 µM) | < 2 | < 2 | – |
| CC(C)(O)[C@H](NC(=O)c1ccc(C#Cc2ccc(CNCC(F)F)cc2)cc1)C(=O)NO [Example 119-5] | < 2 | < 2 | < 2 | A (MIC's of 2.0 μg/mL or less = A) | < 2 | 16 to 64 (≈ 35.9 to 144 µM) | < 2 | < 2 | – |
| NC[C@H](NC(=O)c1ccc(C#Cc2ccc(CNC(=O)CCC(=O)O)cc2)cc1)C(=O)NO [Example 137-11] | 16 to 64 (≈ 35.4 to 141 µM) | > 64 | > 64 | B (MIC's of greater than 2.0 μg/mL to 16.0 μg/mL = B) | 2 to 16 (≈ 4.42 to 35.4 µM) | > 64 | 16 to 64 (≈ 35.4 to 141 µM) | > 64 | – |
| C[C@@H](N)[C@H](NC(=O)c1ccc(C#CC#Cc2ccc(CNCCF)cc2)cc1)C(=O)NO [Example 86-5] | < 2 | < 2 | 16 to 64 (≈ 36.7 to 147 µM) | A (MIC's of 2.0 μg/mL or less = A) | < 2 | 16 to 64 (≈ 36.7 to 147 µM) | < 2 | 2 to 16 (≈ 4.58 to 36.7 µM) | – |
| CC(C)(N)[C@H](NC(=O)c1ccc(C#CC2CC2c2ccccc2)cc1)C(=O)NO (stereo partly drawn) [Example 134-1, N—((S)-2-Amino-1-hydroxycarbamoyl-2-methyl-propyl)-4-(2-phenyl-cyclopropylethynyl)-benzamide] | < 2 | 2 to 16 (≈ 5.11 to 40.9 µM) | 2 to 16 (≈ 5.11 to 40.9 µM) | A (MIC's of 2.0 μg/mL or less = A) | < 2 | 16 to 64 (≈ 40.9 to 163 µM) | 2 to 16 (≈ 5.11 to 40.9 µM) | < 2 | – |
| CC(C)(O)[C@H](NC(=O)c1ccc(C#CC#Cc2ccccn2)cc1)C(=O)NO [Example 88-7] | < 2 | < 2 | 2 to 16 (≈ 5.3 to 42.4 µM) | A (MIC's of 2.0 μg/mL or less = A) | < 2 | 16 to 64 (≈ 42.4 to 170 µM) | 2 to 16 (≈ 5.3 to 42.4 µM) | 2 to 16 (≈ 5.3 to 42.4 µM) | – |
| C[C@@H](N)[C@H](NC(=O)c1ccc(C#CC#CCC2CCCC2)cc1)C(=O)NO [Example 91-25] | 16 to 64 (≈ 43.5 to 174 µM) | 16 to 64 (≈ 43.5 to 174 µM) | 16 to 64 (≈ 43.5 to 174 µM) | B (MIC's of greater than 2.0 μg/mL to 16.0 μg/mL = B) | 2 to 16 (≈ 5.44 to 43.5 µM) | 16 to 64 (≈ 43.5 to 174 µM) | 16 to 64 (≈ 43.5 to 174 µM) | 16 to 64 (≈ 43.5 to 174 µM) | – |
| C[C@@H](N)[C@H](NC(=O)c1ccc(C#CC#Cc2ccc(NS(C)(=O)=O)cc2)cc1)C(=O)NO [Example 93-1, N-((2S,3R)-3-amino-1-(hydroxyamino)-1-oxobutan-2-yl)-4-((4-(methylsulfonamido)phenyl)buta-1,3-diynyl)benzamide] | < 2 | < 2 | 16 to 64 (≈ 35.2 to 141 µM) | A (MIC's of 2.0 μg/mL or less = A) | < 2 | 16 to 64 (≈ 35.2 to 141 µM) | < 2 | < 2 | – |
| C[C@@H](N)[C@H](NC(=O)c1ccc(C#Cc2ccc(CNCC(F)(F)F)cc2)cc1)C(=O)NO [Example 137-16] | < 2 | < 2 | 2 to 16 (≈ 4.46 to 35.7 µM) | A (MIC's of 2.0 μg/mL or less = A) | < 2 | 16 to 64 (≈ 35.7 to 143 µM) | 2 to 16 (≈ 4.46 to 35.7 µM) | 2 to 16 (≈ 4.46 to 35.7 µM) | – |
| Cn1cc(C#CC#Cc2ccc(C(=O)N[C@H](C(=O)NO)C(C)(C)O)cc2)cn1 [Example 89-3] | < 2 | < 2 | < 2 | A (MIC's of 2.0 μg/mL or less = A) | < 2 | 16 to 64 (≈ 42.1 to 168 µM) | < 2 | 2 to 16 (≈ 5.26 to 42.1 µM) | – |
| C[C@@H](N)[C@H](NC(=O)c1ccc(C#CC(O)c2ccccc2)cc1)C(=O)NO (stereo partly drawn) [Example 137-20] | 16 to 64 (≈ 43.5 to 174 µM) | 16 to 64 (≈ 43.5 to 174 µM) | 16 to 64 (≈ 43.5 to 174 µM) | A (MIC's of 2.0 μg/mL or less = A) | 2 to 16 (≈ 5.44 to 43.5 µM) | 16 to 64 (≈ 43.5 to 174 µM) | 16 to 64 (≈ 43.5 to 174 µM) | 2 to 16 (≈ 5.44 to 43.5 µM) | – |
| CC(C)(O)[C@H](NC(=O)c1ccc(C#Cc2ccccc2)cc1)C(=O)NO [Example 133-14] | < 2 | < 2 | < 2 | A (MIC's of 2.0 μg/mL or less = A) | < 2 | 16 to 64 (≈ 45.4 to 182 µM) | 2 to 16 (≈ 5.68 to 45.4 µM) | < 2 | – |
| CC(C)CCC#CC#Cc1ccc(C(=O)N[C@H](C(=O)NO)C(C)(C)N)cc1 [Example 91-21] | < 2 | < 2 | 2 to 16 (≈ 5.41 to 43.3 µM) | A (MIC's of 2.0 μg/mL or less = A) | < 2 | 2 to 16 (≈ 5.41 to 43.3 µM) | 2 to 16 (≈ 5.41 to 43.3 µM) | 2 to 16 (≈ 5.41 to 43.3 µM) | – |
| Cn1cc(C#CC#Cc2ccc(C(=O)N[C@H](C(=O)NO)C(C)(C)N)cc2)cn1 [Example 89-2] | < 2 | < 2 | 2 to 16 (≈ 5.27 to 42.2 µM) | A (MIC's of 2.0 μg/mL or less = A) | < 2 | 16 to 64 (≈ 42.2 to 169 µM) | < 2 | < 2 | 1.6 |
| CCC#CC#Cc1ccc(C(=O)N[C@H](C(=O)NO)[C@@H](C)N)cc1 [Example 91-7] | < 2 | < 2 | 2 to 16 (≈ 6.38 to 51.1 µM) | A (MIC's of 2.0 μg/mL or less = A) | < 2 | 2 to 16 (≈ 6.38 to 51.1 µM) | < 2 | 2 to 16 (≈ 6.38 to 51.1 µM) | – |
| C[C@@H](N)[C@H](NC(=O)c1ccc(C#Cc2ccc(CN3CCC(F)CC3)cc2)cc1)C(=O)NO [Example 115-1, N-((2S,3R)-3-amino-1-(hydroxyamino)-1-oxobutan-2-yl)-4-((4-((4-fluoropiperidin-1-yl)methyl)phenyl)ethynyl)benzamide] | < 2 | < 2 | 2 to 16 (≈ 4.42 to 35.4 µM) | A (MIC's of 2.0 μg/mL or less = A) | < 2 | > 64 | 2 to 16 (≈ 4.42 to 35.4 µM) | 2 to 16 (≈ 4.42 to 35.4 µM) | – |
| O=C(NC(C(=O)NO)C1(O)CC1)c1ccc(C#CC#CC2CC2)cc1 (stereo not drawn) [Example 94-1, 4-(cyclopropylbuta-1,3-diynyl)-N-(2-(hydroxyamino)-1-(1-hydroxycyclopropyl)-2-oxoethyl)benzamide] | < 2 | < 2 | 2 to 16 (≈ 5.91 to 47.3 µM) | A (MIC's of 2.0 μg/mL or less = A) | < 2 | 16 to 64 (≈ 47.3 to 189 µM) | < 2 | 2 to 16 (≈ 5.91 to 47.3 µM) | – |
| CC(C)(N)C(NC(=O)c1ccc(C#CC#Cc2ccncc2)cc1)C(=O)NO (stereo not drawn) [Example 88-6] | < 2 | < 2 | 2 to 16 (≈ 5.31 to 42.5 µM) | A (MIC's of 2.0 μg/mL or less = A) | < 2 | 16 to 64 (≈ 42.5 to 170 µM) | 2 to 16 (≈ 5.31 to 42.5 µM) | 2 to 16 (≈ 5.31 to 42.5 µM) | – |
| C[C@@H](O)[C@H](NC(=O)c1ccc(C#C/C=C/c2ccncc2)cc1)C(=O)NO [Example 106-1, N-((1S,2R)-2-Hydroxy-1-hydroxycarbamoyl-propyl)-4-((E)-4-pyridin-4-yl-but-3-en-1-ynyl)-benzamide] | < 2 | < 2 | 2 to 16 (≈ 5.47 to 43.8 µM) | A (MIC's of 2.0 μg/mL or less = A) | < 2 | 16 to 64 (≈ 43.8 to 175 µM) | 16 to 64 (≈ 43.8 to 175 µM) | 16 to 64 (≈ 43.8 to 175 µM) | – |

Source: US9617256B2 (priority 2007, dated 2017)
